Experimental data reported in the supplement of paper PMC8633005.

Assays:
Test in all cases: drug sensitivity score (DSS) (DSS (unitless, 0-50 scale)); higher = more sensitive (stronger viability inhibition); extreme values may be limits of the assay
Conditions in all cases: 72 h; culture: 2D
[1] = tested on: SK-MEL-2
How it was run: (§1)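 Patient-derived melanoma cultures and melanoma cell lines were grown in 2D in 384-well plates with a 527-compound oncology library at five concentrations spanning a 10,000-fold range, with 1000–1500 cells per well for the cultures. CellTiter-Glo luminescence gave viability after 72 h at 37 °C. The drug sensitivity score is a modified area-under-curve measure derived from dose-response curves fitted in the in-house Breeze software.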

[2] = tested on: WM852
How it was run: as §1

[3] = tested on: FM-MEL-2
How it was run: as §1

[4] = tested on: FM-MEL-3
How it was run: as §1

[5] = tested on: Bowes
How it was run: as §1

[6] = tested on: WM165
How it was run: as §1

[7] = tested on: SK-MEL-28
How it was run: as §1

[8] = tested on: FM-MEL-6
How it was run: as §1

Row | Compound | drug sensitivity score [1] | drug sensitivity score [2] | drug sensitivity score [3] | drug sensitivity score [4] | drug sensitivity score [5] | drug sensitivity score [6] | drug sensitivity score [7] | drug sensitivity score [8]
1 | COc1ccccc1S(=O)(=O)Nc1ccc2c(c1)CN(C)C(=O)N2 [PFI-1] | 0.1 | 0.1 | 4.7 | 6 | 4 | 6.2 | 2.8 | 4.1
2 | Cc1cc(Nc2ncnc3ccc(NC4=NC(C)(C)CO4)cc23)ccc1Oc1ccn2ncnc2c1 [Tucatinib] | 0 | 0 | 0.4 | 0 | 0 | 0 | 0 | 0
3 | CCCCCCCCCCCCCCCCOP(=O)([O-])OCC[N+](C)(C)C [Miltefosine] | 2.1 | 2 | 0.4 | 6 | 5.9 | 6.2 | 1.8 | 1.2
4 | Cc1cc2c(C(=O)NC[C@H](C)c3ccccc3)c(O)c(O)cc2c(O)c1-c1c(C)cc2c(C(=O)NC[C@H](C)c3ccccc3)c(O)c(O)cc2c1O [Sabutoclax] | 9.2 | 18 | 13 | 0.4 | 27.6 | 24.6 | 11.1 | 5.6
5 | Cc1cc(OCc2nnc(SC3CCCC3)n2-c2cccnc2)ccc1-c1ccc(S(C)(=O)=O)cc1 [NMS-873] | 4.4 | 16.9 | 4.1 | 11.4 | 11.1 | 9.4 | 6.8 | 5
6 | O=S(=O)(c1cccc2c(O)nccc12)N1CCCNCC1 [Hydroxyfasudil] | 0 | 0 | 0 | 0 | 0 | 0 | 0 | 1.8
7 | CO[C@@H](C(=O)N1Cc2[nH]nc(NC(=O)c3ccc(N4CCN(C)CC4)cc3)c2C1)c1ccccc1 [Danusertib] | 1 | 3.2 | 0 | 1.5 | 10.4 | 14.5 | 5.1 | 2.9
8 | O=c1ncn2nc(Sc3ccc(F)cc3F)ccc2c1-c1c(Cl)cccc1Cl [Neflamapimod] | 0 | 0.1 | 0.1 | 0.8 | 1.6 | 0.1 | 0.1 | 0.2
9 | COC[C@H](NC(=O)c1cnc(C)s1)C(=O)N[C@@H](COC)C(=O)N[C@@H](Cc1ccccc1)C(=O)[C@@]1(C)CO1 [Oprozomib] | 15.2 | 16.9 | 9.3 | 20.3 | 20.3 | 20 | 17 | 19.4
10 | COc1cc2c(Oc3ccc(NC(=O)C4(C(=O)Nc5ccc(F)cc5)CC4)cc3F)ccnc2cc1OCCCN1CCOCC1 [Foretinib] | 0 | 2.2 | 3.1 | 3.2 | 5.1 | 2.6 | 2.6 | 0.9
11 | Cn1nccc1Nc1nccc(-c2ccn([C@H](CO)c3ccc(Cl)c(F)c3)c(=O)c2)n1 [Ravoxertinib] | 5.2 | 1.9 | 11.9 | 12.4 | 1.7 | 12 | 13.1 | 5.6
12 | NC(=S)N/N=C/c1ncccc1N [Triapine] | 0 | 0 | 0.4 | 0.6 | 1.9 | 5.3 | 2.5 | 3.2
13 | Nc1ncnc2c1c(COc1cccc(Cl)c1)nn2C1CCOCC1 | 0 | 0.8 | 0.2 | 0 | 0 | 0 | 0 | 0.7
14 | CNC(=O)CN1CCC(Oc2cc3c(Nc4cccc(Cl)c4F)ncnc3cc2OC)CC1 [Sapitinib] | 0 | 0 | 0 | 0 | 0 | 0 | 0 | 0
15 | CN(C)C[C@@H]1CCn2cc(c3ccccc32)C2=C(C(=O)NC2=O)c2cn(c3ccccc23)CCO1 [Ruboxistaurin] | 4.7 | 6.7 | 7.2 | 6.5 | 4.5 | 8.6 | 9 | 7.6
16 | COc1cc2c(NC3CCN(C(C)C)CC3)nc(C3CCCCC3)nc2cc1OCCCN1CCCC1 [UNC0638] | 5.9 | 5.9 | 6.9 | 4.4 | 6.6 | 5.8 | 5.8 | 2.8
17 | COc1cc2c(N3CCN(C(=O)Nc4ccc(OC(C)C)cc4)CC3)ncnc2cc1OCCCN1CCCCC1 [Tandutinib] | 0 | 0 | 0 | 0 | 0 | 0 | 0 | 0
18 | N.N.[Cl][Pt][Cl] [Cisplatin] | 4.4 | 5.1 | 4.2 | 5.8 | 5.6 | 19.2 | 9.2 | 4.5
19 | Cc1cnc(NC(=O)Nc2cc(Br)c(C)cc2OC[C@@H]2CNCCO2)cn1 [Rabusertib] | 0 | 2.4 | 0 | 1.5 | 0.9 | 0 | 0 | 0
20 | Nc1nc(Nc2ccc3c(c2)CC[C@@H](N2CCCC2)CC3)nn1-c1cc2c(nn1)-c1ccccc1CCC2 [BGB324] | 5.6 | 6.9 | 2.6 | 5 | 3.2 | 5.7 | 6.7 | 5.4
21 | CC(C)C[C@H](NC(=O)[C@@H](COC(C)(C)C)NC(=O)[C@H](Cc1ccc(O)cc1)NC(=O)[C@H](CO)NC(=O)[C@H](Cc1c[nH]c2ccccc12)NC(=O)[C@H](Cc1cnc[nH]1)NC(=O)[C@@H]1CCC(=O)N1)C(=O)N[C@@H](CCCNC(=N)N)C(=O)N1CCC[C@H]1C(=O)NNC(N)=O [Goserelin] | 0 | 0 | 0 | 0 | 0 | 0 | 0 | 0

Row | Compound | drug sensitivity score [1] | drug sensitivity score [2] | drug sensitivity score [3] | drug sensitivity score [4] | drug sensitivity score [5] | drug sensitivity score [6] | drug sensitivity score [7] | drug sensitivity score [8]
22 | O=C(/C=C/c1cccc(S(=O)(=O)Nc2ccccc2)c1)NO [Belinostat] | 13.6 | 5.7 | 9.4 | 12.5 | 7.9 | 17.7 | 10.6 | 13.9
23 | COc1ccc2[nH]cc(/C=C3\C(=O)Nc4ccc(NC(=O)CCN5CCCCC5)cc43)c2c1 | 4.6 | 11.1 | 12.6 | 5.6 | 5.9 | 8.8 | 8.6 | 5
24 | CO[C@@H]1[C@H](N(C)C(=O)c2ccccc2)C[C@H]2O[C@]1(C)n1c3ccccc3c3c4c(c5c6ccccc6n2c5c31)C(=O)NC4 [Midostaurin] | 2.9 | 8.1 | 3.5 | 5.4 | 5.1 | 14.6 | 4.3 | 2.3
25 | Cc1ccc(C(=O)N(CCCN)[C@@H](c2oc3cc(Cl)ccc3c(=O)c2Cc2ccccc2)C(C)C)cc1 | 10 | 4.5 | 3.9 | 2.1 | 7.7 | 4.3 | 0.9 | 5.4
26 | CNc1nc(Nc2cn(C(C)(C)C#N)nc2C)ncc1C(F)(F)F [GNE-0877] | 0 | 0 | 0 | 0 | 0 | 0 | 0 | 0
27 | CO[C@@]12[C@H](COC(N)=O)C3=C(C(=O)C(C)=C(N)C3=O)N1C[C@@H]1N[C@@H]12 [Mitomycin C] | 2 | 0 | 0.2 | 3.5 | 3.1 | 6.2 | 1.9 | 0.8
28 | CNC(=O)c1cc(COc2nnc(Nc3ccc(Cl)cc3)c3ccoc23)ccn1 [Telatinib] | 0 | 0.3 | 0 | 0 | 0 | 0 | 0 | 0.1
29 | CO[C@H]1CC[C@H](N2C(=O)CNc3ncc(-c4ccc(C(C)(C)O)nc4)nc32)CC1 [CC-223] | 3.1 | 4.2 | 7.4 | 5.1 | 4.1 | 7.1 | 5.2 | 5.9
30 | CC[C@H](C)C(=O)O[C@H]1C[C@@H](C)C=C2C=C[C@H](C)[C@H](CC[C@@H]3C[C@@H](O)CC(=O)O3)[C@H]21 [Lovastatin] | 0 | 0.6 | 0 | 0.1 | 2.1 | 1.8 | 0 | 0
31 | Cn1ncnc1[C@H]1c2n[nH]c(=O)c3cc(F)cc(c23)N[C@@H]1c1ccc(F)cc1 [Talazoparib] | 0 | 0 | 0.4 | 2.3 | 0 | 11.7 | 0.1 | 2.3
32 | CC1(C)C(C(=O)Nc2ccc(S(=O)(=O)c3ccc(NC(=O)C4C(C)(C)C4(C)C)cc3)cc2)C1(C)C [BRD7116] | 0 | 0 | 2.1 | 0.6 | 0.1 | 0 | 0 | 0
33 | COc1cc2nccc(Oc3ccc(NC(=O)Nc4cc(C)on4)c(Cl)c3)c2cc1OC [Tivozanib] | 0 | 1.1 | 3.4 | 4.8 | 2.8 | 3.1 | 3.1 | 0.5
34 | COc1cc2ncnc(Nc3ccc(F)c(Cl)c3)c2cc1OCCCN1CCOCC1 [Gefitinib] | 0 | 3 | 2.6 | 2.4 | 2.9 | 4.6 | 2.9 | 2.7
35 | CC(C)N(C[C@H]1O[C@@H](n2cnc3c(N)ncnc32)[C@H](O)[C@@H]1O)[C@H]1C[C@@H](CCc2nc3cc(C(C)(C)C)ccc3[nH]2)C1 [Pinometostat] | 0 | 0 | 0 | 0 | 0 | 0 | 0 | 0
36 | CC[C@H](NC(=O)[C@H](C)NC)C(=O)N1C[C@@H](O)C[C@H]1Cc1c(-c2[nH]c3cc(F)ccc3c2C[C@@H]2C[C@H](O)CN2C(=O)[C@H](CC)NC(=O)[C@H](C)NC)[nH]c2cc(F)ccc12 [Birinapant] | 3.9 | 0 | 8 | 1.4 | 0 | 0 | 0 | 3
37 | C[C@H](Nc1ncnc2nc[nH]c12)c1cc2cccc(Cl)c2c(=O)n1-c1ccccc1 [Duvelisib] | 0 | 0 | 2.3 | 0 | 0 | 0 | 1.3 | 0
38 | Cc1cc(F)c(C(=O)Nc2cccc(-c3nncn3C(C)C)n2)cc1-n1cnc(C2CC2)c1 [Selonsertib] | 0 | 0 | 0 | 0 | 0 | 0 | 0 | 0
39 | Nc1nc2[nH]cc(CCc3ccc(C(=O)N[C@@H](CCC(=O)O)C(=O)O)cc3)c2c(=O)[nH]1 [Pemetrexed] | 0 | 0 | 0.6 | 0 | 24.5 | 7.4 | 6.6 | 0.1
40 | Nc1ccccc1NC(=O)c1ccc(CNC(=O)OCc2cccnc2)cc1 [Entinostat] | 7.9 | 0.1 | 4.5 | 6.6 | 1.8 | 11.4 | 8.7 | 8.2
41 | Cc1ccc(NC(=O)c2ccc(CN3CC[C@H](N(C)C)C3)c(C(F)(F)F)c2)cc1Nc1nccc(-c2cncnc2)n1 [Bafetinib] | 0 | 0 | 2.3 | 1.7 | 0 | 2.9 | 1.3 | 0
